Measured values published in PubChem BioAssay (NCI).
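Exposure lasted 48 hours, with cells grown in 96-well plates and compounds tested at five concentrations. TGI denotes the concentration required for complete inhibition of growth.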

Key:
Experiment in all cases: growth of human tumour cells (NCI), 48 h
786-0 renal = system: 786-0 renal
A498 renal = system: A498 renal
A549 NSCLC = system: A549 NSCLC
ACHN renal = system: ACHN renal
BT-549 breast = system: BT-549 breast
CAKI-1 renal = system: CAKI-1 renal
CCRF-CEM leukemia = system: CCRF-CEM leukemia
COLO 205 colon = system: COLO 205 colon
DU-145 prostate = system: DU-145 prostate
EKVX NSCLC = system: EKVX NSCLC
HCC-2998 colon = system: HCC-2998 colon
HCT-116 colon = system: HCT-116 colon
HCT-15 colon = system: HCT-15 colon
HL-60(TB) leukemia = system: HL-60(TB) leukemia
HOP-62 NSCLC = system: HOP-62 NSCLC
HOP-92 NSCLC = system: HOP-92 NSCLC
HS 578T breast = system: HS 578T breast
HT29 colon = system: HT29 colon
IGROV1 ovarian = system: IGROV1 ovarian
K-562 leukemia = system: K-562 leukemia
KM12 colon = system: KM12 colon
LOX IMVI melanoma = system: LOX IMVI melanoma
M14 melanoma = system: M14 melanoma
MALME-3M melanoma = system: MALME-3M melanoma
MCF7 breast = system: MCF7 breast
MDA-MB-231 breast = system: MDA-MB-231 breast
MDA-MB-435 = system: MDA-MB-435
MDA-N = system: MDA-N
MOLT-4 leukemia = system: MOLT-4 leukemia
NCI-H226 lung = system: NCI-H226 lung
NCI-H23 lung = system: NCI-H23 lung
NCI-H460 lung = system: NCI-H460 lung
NCI-H522 lung = system: NCI-H522 lung
NCI/ADR-RES ovarian = system: NCI/ADR-RES ovarian
OVCAR-3 ovarian = system: OVCAR-3 ovarian
OVCAR-4 ovarian = system: OVCAR-4 ovarian
OVCAR-5 ovarian = system: OVCAR-5 ovarian
OVCAR-8 ovarian = system: OVCAR-8 ovarian
PC-3 prostate = system: PC-3 prostate
RPMI-8226 leukemia = system: RPMI-8226 leukemia
RXF 393 renal = system: RXF 393 renal
SF-268 CNS = system: SF-268 CNS
SF-295 CNS = system: SF-295 CNS
SF-539 CNS = system: SF-539 CNS
SK-MEL-2 melanoma = system: SK-MEL-2 melanoma
SK-MEL-28 melanoma = system: SK-MEL-28 melanoma
SK-MEL-5 melanoma = system: SK-MEL-5 melanoma
SK-OV-3 ovarian = system: SK-OV-3 ovarian
SN12C renal = system: SN12C renal
SNB-19 CNS = system: SNB-19 CNS
SR leukemia = system: SR leukemia
SW-620 colon = system: SW-620 colon
T-47D breast = system: T-47D breast
TK-10 renal = system: TK-10 renal
U251 CNS = system: U251 CNS
UACC-257 melanoma = system: UACC-257 melanoma
UACC-62 melanoma = system: UACC-62 melanoma
UO-31 renal = system: UO-31 renal
SNB-75 CNS = system: SNB-75 CNS
DMS 114 small cell lung = system: DMS 114 small cell lung
KM20L2 colon = system: KM20L2 colon
SNB-78 CNS = system: SNB-78 CNS
DMS 273 small cell lung = system: DMS 273 small cell lung
HOP-18 NSCLC = system: HOP-18 NSCLC
M19-MEL melanoma = system: M19-MEL melanoma

Measured: TGI

COC(=O)c1nc2n(n1)-c1ccccc1C(=O)N(Cc1ccccc1)C2
not listed: SNB-75 CNS | DMS 114 small cell lung | KM20L2 colon | SNB-78 CNS | DMS 273 small cell lung | HOP-18 NSCLC | M19-MEL melanoma
> 100 µM: all other assays above

NS(=O)(=O)c1ccc(NCc2cccc3c(=O)c4ccc(Cl)cc4oc23)cc1
> 80 µM: NCI-H23 lung
82.3 µM: HS 578T breast
64.4 µM: SF-268 CNS
> 96.6 µM: SNB-75 CNS
> 93.2 µM: UO-31 renal
57 µM: HOP-92 NSCLC
> 67 µM: MCF7 breast
> 65.5 µM: EKVX NSCLC
> 70.7 µM: KM12 colon
> 52.6 µM: CCRF-CEM leukemia
> 67.2 µM: OVCAR-8 ovarian
> 51.3 µM: SR leukemia
> 85.7 µM: CAKI-1 renal
> 92.2 µM: RPMI-8226 leukemia
> 66.5 µM: MALME-3M melanoma
99.7 µM: NCI-H522 lung
> 93.1 µM: M14 melanoma
> 96.7 µM: BT-549 breast
> 64.6 µM: SF-539 CNS
> 68.8 µM: IGROV1 ovarian
9.47 µM: HL-60(TB) leukemia
> 61.8 µM: SNB-19 CNS
> 80.2 µM: MDA-N
not listed: NCI-H460 lung | DMS 114 small cell lung | KM20L2 colon | SNB-78 CNS | DMS 273 small cell lung | HOP-18 NSCLC | M19-MEL melanoma
> 100 µM: all other assays above

N#CN1CCC2CC(=O)CCC2C1 (stereo not drawn)
not listed: A498 renal | BT-549 breast | CCRF-CEM leukemia | COLO 205 colon | DU-145 prostate | EKVX NSCLC | HOP-62 NSCLC | HS 578T breast | HT29 colon | MCF7 breast | MDA-MB-231 breast | MDA-MB-435 | MDA-N | NCI-H460 lung | NCI-H522 lung | NCI/ADR-RES ovarian | OVCAR-8 ovarian | PC-3 prostate | RPMI-8226 leukemia | SF-295 CNS | SF-539 CNS | SK-MEL-5 melanoma | T-47D breast | UACC-257 melanoma | DMS 273 small cell lung | HOP-18 NSCLC | M19-MEL melanoma
> 100 µM: all other assays above

Cc1[nH]n(C(=O)Cc2ccccc2)c(=O)c1/C=C1\C(=O)C=Cc2ccccc21
40.2 µM: MALME-3M melanoma
79.9 µM: UO-31 renal
93 µM: LOX IMVI melanoma
75.2 µM: SF-539 CNS
93.4 µM: CCRF-CEM leukemia
84.6 µM: HOP-18 NSCLC
not listed: A498 renal | BT-549 breast | DU-145 prostate | HOP-92 NSCLC | HS 578T breast | IGROV1 ovarian | M14 melanoma | MCF7 breast | MDA-MB-231 breast | MDA-MB-435 | MDA-N | NCI/ADR-RES ovarian | PC-3 prostate | RXF 393 renal | SK-MEL-2 melanoma | SK-OV-3 ovarian | T-47D breast | U251 CNS | UACC-62 melanoma | KM20L2 colon | SNB-78 CNS
> 100 µM: all other assays above
